The target in this experiment is T1, CDK1/cyclin B (Homo sapiens, UniProt P06493).
T1 construct: purchased Thermo Fisher Scientific (Life Technologies) SelectScreen
Description: SelectScreen Z'LYTE. Type of experiment: biochemical. The procedure, abridged: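 Compound tested in SelectScreen activity assays, Z'LYTE for CSF1R, CDK1/cyclin B and MAP2K6 and Adapta for CAMK1. ATP for CAMK1 was listed as 10, and Km app was used for CSF1R. Results are expressed in percent.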

T1 sequence (P06493 whole entry): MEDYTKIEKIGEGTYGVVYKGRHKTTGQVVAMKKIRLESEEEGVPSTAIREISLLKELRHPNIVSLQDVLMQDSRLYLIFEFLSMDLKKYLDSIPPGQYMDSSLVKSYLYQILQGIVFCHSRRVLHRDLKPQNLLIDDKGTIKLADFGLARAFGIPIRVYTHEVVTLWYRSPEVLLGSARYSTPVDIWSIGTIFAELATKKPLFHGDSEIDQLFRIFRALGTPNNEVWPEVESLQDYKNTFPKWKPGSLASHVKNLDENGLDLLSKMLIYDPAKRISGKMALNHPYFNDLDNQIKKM
T1 sequence (P14635 whole entry partner): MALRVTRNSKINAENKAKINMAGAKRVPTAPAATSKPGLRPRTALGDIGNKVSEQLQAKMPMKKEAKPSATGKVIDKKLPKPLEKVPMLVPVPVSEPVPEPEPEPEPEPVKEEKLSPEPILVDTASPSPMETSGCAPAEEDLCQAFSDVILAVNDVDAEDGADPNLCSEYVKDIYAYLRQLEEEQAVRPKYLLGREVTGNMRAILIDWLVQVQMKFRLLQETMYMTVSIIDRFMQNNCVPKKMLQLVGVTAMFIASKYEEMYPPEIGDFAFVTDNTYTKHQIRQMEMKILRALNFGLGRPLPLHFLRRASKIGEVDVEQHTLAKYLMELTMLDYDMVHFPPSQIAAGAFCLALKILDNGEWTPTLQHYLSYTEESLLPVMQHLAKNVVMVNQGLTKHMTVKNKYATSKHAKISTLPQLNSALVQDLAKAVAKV

As to `CN(C(=O)CN1CCOCC1)c1ccc2sc3c(-c4cccc5c(=O)cc(N6CC7CCC(C6)O7)oc45)cccc3c2c1` [NU5455], 1 µM produced 1.6% inhibition.

The term inhibition denotes the change of the read-out against control, counted positive when it falls.

Values taken from PMC6934184, “Selective DNA-PKcs inhibition extends the therapeutic index of localized radiotherapy and chemotherapy” (The Journal of Clinical Investigation, 2019).
